Numbers after ± are expanded uncertainties.
Assay: xn = mol fraction of the nth substance listed
Settings: for surface tension liquid-gas: Pendant drop shape; for viscosity: 101 kPa, Liquid, Concentric cylinders viscometry

COS(=O)(=O)[O-].Cn1cc[n+](C)c1 [1,3-dimethylimidazolium methylsulfate] + CCCCCO
Settings	surface tension liquid-gas, 298.15 K [mN/m]	surface tension liquid-gas, 303.15 K [mN/m]	surface tension liquid-gas, 308.15 K [mN/m]	surface tension liquid-gas, 313.15 K [mN/m]	viscosity, 298.15 K [mPa·s]	viscosity, 303.15 K [mPa·s]	viscosity, 308.15 K [mPa·s]	viscosity, 313.15 K [mPa·s]
x1 = 0.1	28 ± 0.6	27.6 ± 0.6	27.2 ± 0.6	26.9 ± 0.6	9.23 ± 0.57	7.19 ± 0.44	6.2 ± 0.38	5.25 ± 0.32
x1 = 0.35	36.2 ± 0.8	35.9 ± 0.8	35.6 ± 0.8	35.3 ± 0.8	24.7 ± 1.5	19.4 ± 1.2	15.7 ± 0.9	12.7 ± 0.8
x1 = 0.54	42.6 ± 0.9	42.3 ± 0.9	42 ± 0.9	41.7 ± 0.9	38.2 ± 2.3	29.9 ± 1.8	24.1 ± 1.5	19.8 ± 1.2
x1 = 0.661	46.7 ± 1	46.4 ± 1	46.1 ± 1	45.8 ± 1	47.7 ± 2.9	37.3 ± 2.2	30 ± 1.8	24.7 ± 1.5
x1 = 0.79	51.1 ± 1.1	50.8 ± 1.1	50.5 ± 1.1	50.3 ± 1.1	58.9 ± 3.5	46.5 ± 2.8	37.5 ± 2.3	30.8 ± 1.9
x1 = 0.931	56.1 ± 1.2	55.8 ± 1.2	55.5 ± 1.2	55.2 ± 1.2	71.8 ± 4.3	57.1 ± 3.4	46 ± 2.8	37.8 ± 2.3
x1 = 1	58.5 ± 1.3	58.2 ± 1.3	57.9 ± 1.3	57.6 ± 1.3	78 ± 4.7	61.9 ± 3.7	49.9 ± 3	40.9 ± 2.5

COS(=O)(=O)[O-].Cn1cc[n+](C)c1 [1,3-dimethylimidazolium methylsulfate] + CCCCO
Settings	surface tension liquid-gas, 298.15 K [mN/m]	surface tension liquid-gas, 303.15 K [mN/m]	surface tension liquid-gas, 308.15 K [mN/m]	surface tension liquid-gas, 313.15 K [mN/m]	viscosity, 298.15 K [mPa·s]	viscosity, 303.15 K [mPa·s]	viscosity, 308.15 K [mPa·s]	viscosity, 313.15 K [mPa·s]
x1 = 0.063	26 ± 0.6	25.6 ± 0.6	25.2 ± 0.6	24.8 ± 0.6	5.34 ± 0.34	4.58 ± 0.29	3.86 ± 0.24	3.2 ± 0.2
x1 = 0.221	31.2 ± 0.7	30.9 ± 0.7	30.6 ± 0.7	30.2 ± 0.7	13.5 ± 0.8	10.5 ± 0.6	8.53 ± 0.52	7.18 ± 0.44
x1 = 0.432	38.3 ± 0.8	38.1 ± 0.8	37.8 ± 0.8	37.5 ± 0.8	26.3 ± 1.6	20.2 ± 1.2	16.1 ± 1	13.6 ± 0.8
x1 = 0.64	45.5 ± 1	45.3 ± 1	45 ± 1	44.7 ± 1	41.4 ± 2.5	32.6 ± 2	26.1 ± 1.6	21.9 ± 1.3
x1 = 0.781	50.5 ± 1.1	50.3 ± 1.1	50 ± 1.1	49.7 ± 1.1	54 ± 3.3	43.3 ± 2.6	34.8 ± 2.1	29 ± 1.8
x1 = 0.927	55.8 ± 1.2	55.5 ± 1.2	55.2 ± 1.2	55 ± 1.2	69.7 ± 4.2	55.5 ± 3.3	45 ± 2.7	37 ± 2.2
x1 = 1	58.5 ± 1.3	58.2 ± 1.3	57.9 ± 1.3	57.6 ± 1.3	78 ± 4.7	61.9 ± 3.7	49.9 ± 3	40.9 ± 2.5

COS(=O)(=O)[O-].Cn1cc[n+](C)c1 [1,3-dimethylimidazolium methylsulfate] + CCCO
Settings	surface tension liquid-gas, 298.15 K [mN/m]	surface tension liquid-gas, 303.15 K [mN/m]	surface tension liquid-gas, 308.15 K [mN/m]	surface tension liquid-gas, 313.15 K [mN/m]	viscosity, 298.15 K [mPa·s]	viscosity, 303.15 K [mPa·s]	viscosity, 308.15 K [mPa·s]	viscosity, 313.15 K [mPa·s]
x1 = 0.039	24.5 ± 0.6	24 ± 0.5	23.6 ± 0.5	23.2 ± 0.5	3.15 ± 0.2	2.97 ± 0.19	2.53 ± 0.16	2.2 ± 0.14
x1 = 0.208	30.1 ± 0.7	29.8 ± 0.7	29.4 ± 0.7	29.1 ± 0.7	10.7 ± 0.7	8.55 ± 0.52	6.76 ± 0.41	6.05 ± 0.37
x1 = 0.382	36.1 ± 0.8	35.8 ± 0.8	35.5 ± 0.8	35.2 ± 0.8	19.6 ± 1.2	15.4 ± 0.9	12.2 ± 0.7	10.5 ± 0.6
x1 = 0.561	42.3 ± 0.9	42.1 ± 0.9	41.8 ± 0.9	41.6 ± 0.9	31.3 ± 1.9	25.1 ± 1.5	20.1 ± 1.2	16.8 ± 1
x1 = 0.702	47.4 ± 1.1	47.2 ± 1	46.9 ± 1	46.6 ± 1	42.5 ± 2.6	34.7 ± 2.1	28.1 ± 1.7	23.2 ± 1.4
x1 = 0.912	55.1 ± 1.2	54.9 ± 1.2	54.6 ± 1.2	54.3 ± 1.2	65.2 ± 3.9	52.9 ± 3.2	42.7 ± 2.6	35.3 ± 2.1
x1 = 1	58.5 ± 1.3	58.2 ± 1.3	57.9 ± 1.3	57.6 ± 1.3	78 ± 4.7	61.9 ± 3.7	49.9 ± 3	40.9 ± 2.5

CCn1cc[n+](C)c1.COS(=O)(=O)[O-] [1-ethyl-3-methylimidazolium methylsulfate] + CCCCCO
Settings	surface tension liquid-gas, 298.15 K [mN/m]	surface tension liquid-gas, 303.15 K [mN/m]	surface tension liquid-gas, 308.15 K [mN/m]	surface tension liquid-gas, 313.15 K [mN/m]	viscosity, 298.15 K [mPa·s]	viscosity, 303.15 K [mPa·s]	viscosity, 308.15 K [mPa·s]	viscosity, 313.15 K [mPa·s]
x1 = 0.05	26.1 ± 0.6	25.7 ± 0.6	25.3 ± 0.6	24.9 ± 0.6	5.15 ± 0.32	4.07 ± 0.25	3.74 ± 0.23	3.24 ± 0.2
x1 = 0.284	32.3 ± 0.7	32 ± 0.7	31.6 ± 0.7	31.3 ± 0.7	14.8 ± 0.9	11.9 ± 0.7	10.2 ± 0.6	8.52 ± 0.52
x1 = 0.459	37.1 ± 0.8	36.8 ± 0.8	36.5 ± 0.8	36.2 ± 0.8	24.4 ± 1.5	19.4 ± 1.2	16.3 ± 1	13.6 ± 0.8
x1 = 0.613	41.4 ± 0.9	41.1 ± 0.9	40.8 ± 0.9	40.5 ± 0.9	34.7 ± 2.1	27.3 ± 1.7	22.5 ± 1.4	18.7 ± 1.1
x1 = 0.768	45.8 ± 1.1	45.5 ± 1.1	45.2 ± 1.1	44.9 ± 1	46.9 ± 2.8	37 ± 2.2	30.5 ± 1.9	25.2 ± 1.5
x1 = 0.922	50.3 ± 1.2	50 ± 1.2	49.7 ± 1.2	49.4 ± 1.2	60.9 ± 3.7	48.8 ± 3	40.1 ± 2.4	33.3 ± 2
x1 = 1	52.5 ± 1.3	52.2 ± 1.2	51.9 ± 1.2	51.6 ± 1.2	68.5 ± 4.2	55.4 ± 3.4	45.5 ± 2.8	37.9 ± 2.3

CCn1cc[n+](C)c1.COS(=O)(=O)[O-] [1-ethyl-3-methylimidazolium methylsulfate] + CCCCO
Settings	surface tension liquid-gas, 298.15 K [mN/m]	surface tension liquid-gas, 303.15 K [mN/m]	surface tension liquid-gas, 308.15 K [mN/m]	surface tension liquid-gas, 313.15 K [mN/m]	viscosity, 298.15 K [mPa·s]	viscosity, 303.15 K [mPa·s]	viscosity, 308.15 K [mPa·s]	viscosity, 313.15 K [mPa·s]
x1 = 0.041	25 ± 0.6	24.7 ± 0.6	24.3 ± 0.6	23.9 ± 0.5	3.84 ± 0.24	3.3 ± 0.21	2.86 ± 0.18	2.45 ± 0.15
x1 = 0.219	29.9 ± 0.7	29.5 ± 0.7	29.2 ± 0.7	28.9 ± 0.7	10.7 ± 0.7	8.75 ± 0.53	7.38 ± 0.45	6.22 ± 0.38
x1 = 0.417	35.3 ± 0.8	35.1 ± 0.8	34.7 ± 0.8	34.5 ± 0.8	20.3 ± 1.2	16.4 ± 1	13.8 ± 0.8	11.4 ± 0.7
x1 = 0.571	39.8 ± 0.9	39.5 ± 0.9	39.2 ± 0.9	38.9 ± 0.9	29 ± 1.8	23.4 ± 1.4	19.5 ± 1.2	16.2 ± 1
x1 = 0.731	44.4 ± 1	44.2 ± 1	43.9 ± 1	43.6 ± 1	41.1 ± 2.5	33.1 ± 2	27.5 ± 1.7	22.8 ± 1.4
x1 = 0.909	49.8 ± 1.2	49.5 ± 1.2	49.2 ± 1.2	48.9 ± 1.2	58.2 ± 3.5	46.8 ± 2.8	38.4 ± 2.3	31.8 ± 1.9
x1 = 1	52.5 ± 1.3	52.2 ± 1.2	51.9 ± 1.2	51.6 ± 1.2	68.5 ± 4.2	55.4 ± 3.4	45.5 ± 2.8	37.9 ± 2.3

CCn1cc[n+](C)c1.COS(=O)(=O)[O-] [1-ethyl-3-methylimidazolium methylsulfate] + CCCO
Settings	surface tension liquid-gas, 298.15 K [mN/m]	surface tension liquid-gas, 303.15 K [mN/m]	surface tension liquid-gas, 308.15 K [mN/m]	surface tension liquid-gas, 313.15 K [mN/m]	viscosity, 298.15 K [mPa·s]	viscosity, 303.15 K [mPa·s]	viscosity, 308.15 K [mPa·s]	viscosity, 313.15 K [mPa·s]
x1 = 0.059	24.8 ± 0.6	24.4 ± 0.6	24 ± 0.5	23.6 ± 0.5	3.71 ± 0.23	3.14 ± 0.2	2.72 ± 0.17	2.36 ± 0.15
x1 = 0.228	29.5 ± 0.7	29.1 ± 0.7	28.8 ± 0.7	28.5 ± 0.6	9.94 ± 0.6	8.07 ± 0.49	6.8 ± 0.41	5.75 ± 0.35
x1 = 0.375	33.6 ± 0.8	33.4 ± 0.8	33.1 ± 0.7	32.8 ± 0.7	17 ± 1	13.7 ± 0.8	11.6 ± 0.7	9.72 ± 0.59
x1 = 0.524	38 ± 0.9	37.7 ± 0.9	37.4 ± 0.9	37.2 ± 0.8	24.7 ± 1.5	19.8 ± 1.2	16.6 ± 1	13.9 ± 0.8
x1 = 0.72	43.8 ± 1	43.6 ± 1	43.3 ± 1	43 ± 1	38.9 ± 2.4	31.3 ± 1.9	25.9 ± 1.6	21.6 ± 1.3
x1 = 0.874	48.6 ± 1.1	48.3 ± 1.1	48 ± 1.1	47.7 ± 1.1	52.7 ± 3.2	42.5 ± 2.6	35.1 ± 2.1	29.2 ± 1.8
x1 = 1	52.5 ± 1.3	52.2 ± 1.2	51.9 ± 1.2	51.6 ± 1.2	68.5 ± 4.2	55.4 ± 3.4	45.5 ± 2.8	37.9 ± 2.3

CCCCO [butan-1-ol] + CCn1cc[n+](C)c1.COS(=O)(=O)[O-]
x2 = 0
Settings	surface tension liquid-gas [mN/m]	viscosity [mPa·s]
298.15 K	23.9 ± 0.5	2.57 ± 0.15
303.15 K	23.5 ± 0.5	2.28 ± 0.14
308.15 K	23.1 ± 0.5	2.01 ± 0.12
313.15 K	22.7 ± 0.5	1.75 ± 0.11

CCCCO [butan-1-ol] + COS(=O)(=O)[O-].Cn1cc[n+](C)c1
x2 = 0
Settings	surface tension liquid-gas [mN/m]	viscosity [mPa·s]
298.15 K	23.9 ± 0.5	2.57 ± 0.15
303.15 K	23.5 ± 0.5	2.28 ± 0.14
308.15 K	23.1 ± 0.5	2.01 ± 0.12
313.15 K	22.7 ± 0.5	1.75 ± 0.11

CCCCCO [pentan-1-ol] + CCn1cc[n+](C)c1.COS(=O)(=O)[O-]
x2 = 0
Settings	surface tension liquid-gas [mN/m]	viscosity [mPa·s]
298.15 K	24.7 ± 0.6	3.51 ± 0.21
303.15 K	24.3 ± 0.5	2.84 ± 0.17
308.15 K	23.9 ± 0.5	2.64 ± 0.16
313.15 K	23.5 ± 0.5	2.34 ± 0.14

CCCCCO [pentan-1-ol] + COS(=O)(=O)[O-].Cn1cc[n+](C)c1
x2 = 0
Settings	surface tension liquid-gas [mN/m]	viscosity [mPa·s]
298.15 K	24.7 ± 0.6	3.51 ± 0.21
303.15 K	24.3 ± 0.5	2.84 ± 0.17
308.15 K	23.9 ± 0.5	2.64 ± 0.16
313.15 K	23.5 ± 0.5	2.34 ± 0.14

CCCO [propan-1-ol] + CCn1cc[n+](C)c1.COS(=O)(=O)[O-]
x2 = 0
Settings	surface tension liquid-gas [mN/m]	viscosity [mPa·s]
298.15 K	23.2 ± 0.5	1.94 ± 0.12
303.15 K	22.8 ± 0.5	1.72 ± 0.1
308.15 K	22.3 ± 0.5	1.54 ± 0.09
313.15 K	21.9 ± 0.5	1.38 ± 0.08

CCCO [propan-1-ol] + COS(=O)(=O)[O-].Cn1cc[n+](C)c1
x2 = 0
Settings	surface tension liquid-gas [mN/m]	viscosity [mPa·s]
298.15 K	23.2 ± 0.5	1.94 ± 0.12
303.15 K	22.8 ± 0.5	1.72 ± 0.1
308.15 K	22.3 ± 0.5	1.54 ± 0.09
313.15 K	21.9 ± 0.5	1.38 ± 0.08

Reference: the NIST ThermoML archive (doi:10.1021/acs.jced.8b00948)
